The nature of series [1]: Kinetic Turbidimetric Aqueous Solubility at room temperature for 5 min. The series is classed as physicochemical. To be noted: PBS buffer, kinetic from dmso stock, 2% DMSO. As to the method:
Kinetic Turbidimetric Aqueous Solubility at room temperature for 5 min. Test compound was diluted in PBS buffer to give a range of concentrations (typically 0.4, 2, 4, 20, 40, 100, and 200 μM, final DMSO concentration 2%) and incubated at room temperature for 5 min. Absorbance was measured at a wavelength of 620 nm and the solubility was estimated from the concentration of test compound that produces an increase in absorbance above the vehicle control (i.e., […]). Data was analyzed by fitting a four parameter sigmoidal function to the measured and normalized absorbances and AUC calculation providing access to Log S (decadic logarithm of the solubility).

For the next series, the target named is PqsR (Pseudomonas aeruginosa, UniProt Q9I4X0). The series can be described thus: E. coli based β-galactosidase reporter gene assay (PqsR inverse agonistic activity). It is filed as cell-based. On the set-up: expressed in transfected cells; host or cells: Escherichia coli DH5α. The protocol: Inhibition of pqsR-dependent gene expression of test compounds was determined in an E. coli based β-galactosidase reporter gene assay.[19] Escherichia coli DH5α was transfected with pEAL08-2 plasmid encoding pqsR under control of promoter tac and β-galactosidase reporter gene lacZ under control of promoter pqsA. Antagonistic effects of compounds were evaluated in the presence of/in competition to 50 nM PQS. A positive control was used to ensure the reliability of individual assays. First, PQS was diluted in methanol and added to the wells of a glass coated 96-deep-well plate, and the solvent was evaporated. Then, compounds were added in 5 μL DMSO to final concentrations of 0.001-10 μM. Overnight cultures of E. coli DH5a×pEAL08-2 were diluted 1:100 in LB medium with ampicillin (50 μg/ml) and incubated at 37° C. with shaking until it reached an OD600 of 0.2. Finally, 995 μL of culture was added to each well and the p-galactosidase activity was determined by ortho-nitrophenyl-p-galactoside conversion in permeabilized cells after a 2.5 h incubation period (37° C., 180 rpm). OD600, OD420, and OD550 were measured using POLARstar Omega (BMG Labtech, Ortenberg, Germany), and the activity was expressed as ratio of the slope of β-galactosidase activity between basal control (no PQS) and solvent control. IC50 values of antagonists were determined by variation of the concentration of the test compounds.
Chain of PqsR (Q9I4X0 whole entry): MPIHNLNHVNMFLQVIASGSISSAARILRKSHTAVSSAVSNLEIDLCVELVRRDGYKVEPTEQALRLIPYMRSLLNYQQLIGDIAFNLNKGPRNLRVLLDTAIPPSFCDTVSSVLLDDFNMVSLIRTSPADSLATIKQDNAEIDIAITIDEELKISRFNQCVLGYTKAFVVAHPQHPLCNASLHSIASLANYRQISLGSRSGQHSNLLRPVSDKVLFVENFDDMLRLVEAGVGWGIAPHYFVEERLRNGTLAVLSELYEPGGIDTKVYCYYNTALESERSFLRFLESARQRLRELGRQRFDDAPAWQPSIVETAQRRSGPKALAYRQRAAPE
In general terms: Reporter assays use an easily measured gene product as a stand-in for the process of interest.

Series [2] relates to P. aeruginosa pyocyanin production. The series can be described thus: Pyocyanin assay. The series is classed as cell-based, P. aeruginosa PA14. Particulars: Pseudomonas aeruginosa, PA14, 16 h, read-out: IC50-value towards pyocyanin production, PA14 in PPGAS medium, 16 h. The protocol:
Inhibition of P. aeruginosa pyocyanin production by compounds was determined photometrically as described before.[20] In short, an overnight culture of PA14 in PPGAS medium was washed, diluted in medium to a start OD600 of 0.02, and incubated for 16 h (37° C., 200 rpm, relative humidity 75%) in the presence of test compounds. Then, cultures were extracted with chloroform and re-extracted with 0.2 M HCl. Protonated red colored pyocyanin was determined by measuring OD520 and normalizing to OD600.

Structures are written as SMILES.

In the case of `FC(F)(F)c1cc(NCc2cn(-c3ccc(Oc4cccnc4)cc3)nn2)ccn1` [Compound 033, N-((1-(4-(Pyridin-3-yloxy)phenyl)-1H-1,2,3-triazol-4-yl)methyl)-2-(trifluoromethyl)pyridin-4-amine], in series [1], the solubility (usually how much of the substance goes into solution per volume) at 5 min was more than 25 µM. On PqsR, the IC50 (in general, the concentration that inhibits the measured activity by half) was not above 50 nM.

With `Clc1cc(SCc2nc3cc(Oc4ccccc4)ccc3[nH]2)ccn1` [Compound 178, 2-(((2-chloropyridin-4-yl)thio)methyl)-5-phenoxy-1H-benzo[d]imidazole], the IC50 in series [2] lay within 251 to 1000 nM; at PqsR, 51 to 250 nM.

With `FC(F)(F)c1cc(OCc2nc3cc(Cl)c(Cl)cc3[nH]2)ccn1` [Compound 120, 5,6-Dichloro-2-(((2-(trifluoromethyl)pyridin-4-yl)oxy)methyl)-1H-benzo[d]imidazole], the solubility at 5 min in series [1] is more than 50 µM. On PqsR, this compound had an IC50 of 251 to 1000 nM.

As for `FC(F)(F)c1cc(NCc2cn(-c3ccc(Cc4ccncc4)cc3)nn2)ccn1` [Compound 025, N-((1-(4-(Pyridin-4-ylmethyl)phenyl)-1H-1,2,3-triazol-4-yl)methyl)-2-(trifluoromethyl)pyridin-4-amine], the IC50 was 251 to 1000 nM in series [2] and not above 50 nM on PqsR.

Consider `FC(F)(F)c1cc(NCc2cn(-c3ccc(Oc4ccccc4)c(Cl)c3)nn2)ccn1` [Compound 053, N-((1-(3-Chloro-4-phenoxyphenyl)-1H-1,2,3-triazol-4-yl)methyl)-2-(trifluoromethyl)pyridin-4-amine], for which the IC50 in series [2] is not above 250 nM; at PqsR it was not above 50 nM.

With `COc1ccc(-n2cc(CNc3ccnc(C(F)(F)F)c3)nn2)cc1` [Compound 006, N-((1-(4-Methoxyphenyl)-1H-1,2,3-triazol-4-yl)methyl)-2-(trifluoromethyl)pyridin-4-amine], the IC50 is 1000 to 5000 nM in series [2] and 51 to 250 nM on PqsR.

On to `FC(F)(F)c1cc(NCc2cn(-c3ccc(Oc4cccnc4)c(Cl)c3)nn2)ccn1` [Compound 031, N-((1-(3-Chloro-4-(pyridin-3-yloxy)phenyl)-1H-1,2,3-triazol-4-yl)methyl)-2-(trifluoromethyl)pyridin-4-amine], for which the solubility at 5 min in series [1] is more than 25 µM.

Regarding `COc1ccc(-c2ncc(CNc3cc(N)nc(C(F)(F)F)n3)s2)cc1Cl` [Compound 070, N^4-((2-(3-chloro-4-methoxyphenyl)thiazol-5-yl)methyl)-2-(trifluoromethyl)-pyrimidine-4,6-diamine], in series [1], the solubility at 5 min is more than 25 µM.

In the case of `COc1ncc(-c2nc(CNc3ccnc(C(F)(F)F)c3)cs2)cc1Cl` [Compound 084, N-((2-(5-Chloro-6-methoxypyridin-3-yl)thiazol-4-yl)methyl)-2-(trifluoromethyl)pyridin-4-amine], in series [1], the solubility at 5 min is more than 25 µM. For the same compound, at PqsR, the IC50 lay within 51 to 250 nM.

For the compound `Nc1cc(SCc2cn(-c3ccc(Oc4ccccc4)cc3)nn2)nc(C(F)(F)F)n1` [Compound 065, 6-(((1-(4-phenoxyphenyl)-1H-1,2,3-triazol-4-yl)methyl)thio)-2-(trifluoromethyl)pyrimidin-4-amine], the figures for the IC50 (in series [2]; on PqsR) were not above 250 nM and not above 50 nM, respectively.

With `CC(C)Oc1ccc(-c2ncc(CNc3ccnc(C#N)c3)s2)cc1Cl` [Compound 091, 4-(((2-(3-Chloro-4-isopropoxyphenyl)thiazol-5-yl)methyl)amino)picolinonitrile], the IC50 in series [2] was not above 250 nM; at PqsR it was not above 50 nM.

`FC(F)(F)c1cc(SCc2ccc(-c3ccc(Cl)cc3)cn2)ccn1` [Compound 111, 4-(((5-(4-Chlorophenyl)pyridin-2-yl)methyl)thio)-2-(trifluoromethyl)pyridine] returned a solubility at 5 min in series [1] of more than 10 µM.

As to `CSc1ccc(-n2cc(CNc3ccnc(C(F)(F)F)c3)nn2)cc1` [Compound 016, N-((1-(4-(methylthio)phenyl)-1H-1,2,3-triazol-4-yl)methyl)-2-(trifluoromethyl)pyridin-4-amine], the IC50 in series [2] is 1000 to 5000 nM; at PqsR it was not above 50 nM.

For `CC(C)Oc1ccc(-c2ncc(CNc3cc(Cl)nc(Cl)c3)s2)cc1` [Compound 162, 2,6-Dichloro-N-((2-(4-isopropoxyphenyl)thiazol-5-yl)methyl)pyridin-4-amine], the values for the IC50 (in series [2]; at PqsR) were not above 250 nM and not above 50 nM, respectively.

In the case of `FC(F)(F)c1nccc(SCc2cn(-c3ccc(Oc4ccccc4)cc3)nn2)n1` [Compound 061, 4-(((1-(4-phenoxyphenyl)-1H-1,2,3-triazol-4-yl)methyl)thio)-2-(trifluoromethyl)pyrimidine], the IC50 in series [2] is 251 to 1000 nM; on PqsR, not above 50 nM.

Take `CC(C)Oc1ccc(-n2cc(CNc3cc(C#N)nc(C#N)c3)nn2)cc1Cl` [Compound 159, 4-(((1-(3-chloro-4-isopropoxyphenyl)-1H-1,2,3-triazol-4-yl)methyl)amino)pyridine-2,6-dicarbonitrile]: the half-inhibitory concentration (IC50) in series [2] was not above 250 nM; at PqsR, not above 50 nM.

With `FC(F)(F)c1cc(NCc2cn(-c3ccc(Oc4cccnc4)cc3)nn2)cc(Cl)n1` [Compound 141, 2-chloro-N-((1-(4-(pyridin-3-yloxy)phenyl)-1H-1,2,3-triazol-4-yl)methyl)-6-(trifluoromethyl)pyridin-4-amine], the values for the IC50 (in series [2]; at PqsR) were not above 250 nM and not above 50 nM, respectively.

As to `FC(F)(F)c1cc(NCc2cn(-c3ccc(OC4COC4)c(Cl)c3)nn2)ccn1` [Compound 152, N-((1-(3-chloro-4-(oxetan-3-yloxy)phenyl)-1H-1,2,3-triazol-4-yl)methyl)-2-(trifluoromethyl)pyridin-4-amine], the IC50 in series [2] is 1000 to 5000 nM; on PqsR it was not above 50 nM.

As to `Clc1cc(NCc2cn(-c3ccc(Oc4ccccc4)cc3)nn2)ccn1` [Compound 049, 2-Chloro-N-((1-(4-phenoxyphenyl)-1H-1,2,3-triazol-4-yl)methyl)pyridin-4-amine], the IC50 was 251 to 1000 nM in series [2] and not above 50 nM at PqsR.

`FC(F)(F)c1cc(SCc2nc3cc(Oc4ccccc4)ccc3[nH]2)cc(Cl)n1` [Compound 184, 2-(((2-chloro-6-(trifluoromethyl)pyridin-4-yl)thio)methyl)-5-phenoxy-1H-benzo[d]imidazole]: the IC50 in series [2] is not above 250 nM; on PqsR, not above 50 nM.

Take `FC(F)(F)c1cc(SCc2cn(-c3cccc(Cl)c3)nn2)ccn1` [Compound 056, 4-(((1-(3-Chlorophenyl)-1H-1,2,3-triazol-4-yl)methyl)thio)-2-(trifluoromethyl)pyridine]: in series [1], the solubility at 5 min was more than 25 µM. The same compound displayed an IC50 at PqsR of 251 to 1000 nM.

As for `FC(F)(F)c1cc(NCc2cn(-c3ccc(-n4ncc5ccncc54)cc3)nn2)ccn1` [Compound 148, N-((1-(4-(1H-pyrazolo[3,4-c]pyridin-1-yl)phenyl)-1H-1,2,3-triazol-4-yl)methyl)-2-(trifluoromethyl)pyridin-4-amine], the IC50 in series [2] is 251 to 1000 nM; on PqsR it was not above 50 nM.

In the case of `FC(F)(F)c1cncc(NCc2cn(-c3ccc(Oc4ccccc4)cc3)nn2)c1` [Compound 021, N-((1-(4-phenoxyphenyl)-1H-1,2,3-triazol-4-yl)methyl)-5-(trifluoromethyl)pyridin-3-amine], the half-inhibitory concentration (IC50) is 1000 to 5000 nM in series [2] and not above 50 nM at PqsR.

On to `CC(C)Oc1ccc(-n2cc(CNc3cc(C#N)nc(C(F)(F)F)c3)nn2)cc1Cl` [Compound 156, 4-(((1-(3-chloro-4-isopropoxyphenyl)-1H-1,2,3-triazol-4-yl)methyl)amino)-6-(trifluoromethyl)picolinonitrile], for which the results for the half-maximal inhibitory concentration (IC50) (in series [2]; at PqsR) were 251 to 1000 nM and not above 50 nM, respectively.

Regarding `Fc1ccccc1Oc1ccc(-n2cc(CNc3cc(Cl)nc(C(F)(F)F)c3)nn2)cc1` [Compound 143, 2-chloro-N-((1-(4-(2-fluorophenoxy)phenyl)-1H-1,2,3-triazol-4-yl)methyl)-6-(trifluoromethyl)pyridin-4-amine], the IC50 in series [2] is not above 250 nM; on PqsR, not above 50 nM.

Turning to `FC(F)(F)Oc1ccc(-n2cc(CSc3ccnc(C(F)(F)F)c3)nn2)cc1Cl` [Compound 063, 4-(((1-(3-chloro-4-(trifluoromethoxy)phenyl)-1H-1,2,3-triazol-4-yl)methyl)thio)-2-(trifluoromethyl)pyridine], the half-inhibitory concentration (IC50) in series [2] lay within 1000 to 5000 nM; on PqsR it was 51 to 250 nM.

(Values after patent publication US11883387B2, “PqsR inverse agonists” (HELMHOLTZ-ZENTRUM FÜR INFEKTIONSFORSCHUNG GMBH, priority 2018, dated 2024).)
